System: AMARE
Experiment: A. Herbicidal pre-emergence action on harmful plants (Tables A)
Type: in vivo, Amaranthus retroflexus
Details: application rate 1280 g/ha; visual grading after ca. 3 weeks vs untreated controls; 100% = plants have died off, 0% = as control plants
Excerpt: (§1) Seeds of mono- and dicotyledonous weed plants were sown in plastic pots (double sowings with one species of mono- and one species of dicotyledonous weed plants per pot), in sandy loam, and covered with soil. The compounds according to the invention, formulated in the form of wettable powders (WP) or as emulsifiable concentrates (EC), were applied to the surface of the covering soil as aqueous suspension or emulsion, with the addition of 0.5% of an additive, at an application rate of 6001 of water per hectare (converted). Following treatment, the pots were placed in a greenhouse and kept under optimum growth conditions for the test plants. The visual grading of the damage to the test plants was carried out after ca. 3 weeks in comparison to untreated controls (herbicidal effect in percent (%): 100% effect = plants have died off, 0% effect = as control plants). Tables A1 to A12, below, show the effects of selected compounds of the general formula (I) according to table 1 on various harmful plants and an application rate corresponding to 1280 g/ha or below obtained by the experimental procedure mentioned above. Table A1: pre-emergence activity at 1280g/ha against ABUTH in %

| SMILES | pre-emergence activity against AMARE |
| --- | --- |
| COCc1nn(C)c(Cl)c1C(=O)N1CCCC1Cc1ccccc1F (single isomer, unassigned) [Example I-058] | 100% |
| COCc1c(C(=O)N2CCCC2Cc2ccccc2C)cnn1C (single isomer, unassigned) [Example I-139] | 90% |
| CCOCc1c(C(=O)N2CCCC2Cc2ccccc2F)cnn1C (single isomer, unassigned) [Example I-142] | 90% |

System: LOLRI
Experiment: as above
Type: in vivo, Lolium rigidum
Details: application rate 320 g/ha; visual grading after ca. 3 weeks vs untreated controls; 100% = plants have died off, 0% = as control plants
Excerpt: as §1

| SMILES | pre-emergence activity against LOLRI |
| --- | --- |
| CCOCc1c(C(=O)N2CCCC2Cc2ccccc2F)cnn1C (single isomer, unassigned) [Example I-142] | 90% |

Same assay, conditions: application rate 1280 g/ha; visual grading after ca. 3 weeks vs untreated controls; 100% = plants have died off, 0% = as control plants

| SMILES | pre-emergence activity against LOLRI |
| --- | --- |
| COCc1nn(C)c(Cl)c1C(=O)N1CCCC1Cc1ccccc1F (single isomer, unassigned) [Example I-058] | 90% |
| COCc1c(C(=O)N2CCCC2Cc2ccccc2C)cnn1C (single isomer, unassigned) [Example I-139] | 90% |
| CCOCc1c(C(=O)N2CCCC2Cc2ccccc2F)cnn1C (single isomer, unassigned) [Example I-142] | 100% |

System: POAAN
Experiment: as above
Type: in vivo, Poa annua
Details: application rate 80 g/ha; Table A7c
Excerpt: as §1

| SMILES | pre-emergence activity against POAAN |
| --- | --- |
| COCc1c(C(=O)N2CCCC2Cc2ccccc2C)cnn1C (single isomer, unassigned) [Example I-139] | 100% |
| CCOCc1c(C(=O)N2CCCC2Cc2ccccc2F)cnn1C (single isomer, unassigned) [Example I-142] | 90% |

Same assay, conditions: application rate 320 g/ha; Table A7b

| SMILES | pre-emergence activity against POAAN |
| --- | --- |
| COCc1c(C(=O)N2CCCC2Cc2ccccc2C)cnn1C (single isomer, unassigned) [Example I-139] | 100% |
| CCOCc1c(C(=O)N2CCCC2Cc2ccccc2F)cnn1C (single isomer, unassigned) [Example I-142] | 100% |

Same assay, conditions: application rate 1280 g/ha; visual grading after ca. 3 weeks vs untreated controls; 100% = plants have died off, 0% = as control plants

| SMILES | pre-emergence activity against POAAN |
| --- | --- |
| COCc1nn(C)c(Cl)c1C(=O)N1CCCC1Cc1ccccc1F (single isomer, unassigned) [Example I-058] | 100% |
| COCc1c(C(=O)N2CCCC2Cc2ccccc2C)cnn1C (single isomer, unassigned) [Example I-139] | 100% |
| CCOCc1c(C(=O)N2CCCC2Cc2ccccc2F)cnn1C (single isomer, unassigned) [Example I-142] | 100% |

System: STEME
Experiment: as above
Type: in vivo, Stellaria media
Details: application rate 320 g/ha; visual grading after ca. 3 weeks vs untreated controls; 100% = plants have died off, 0% = as control plants
Excerpt: as §1

| SMILES | pre-emergence activity against STEME |
| --- | --- |
| CCOCc1c(C(=O)N2CCCC2Cc2ccccc2F)cnn1C (single isomer, unassigned) [Example I-142] | 90% |

Same assay, conditions: application rate 1280 g/ha; visual grading after ca. 3 weeks vs untreated controls; 100% = plants have died off, 0% = as control plants

| SMILES | pre-emergence activity against STEME |
| --- | --- |
| COCc1nn(C)c(Cl)c1C(=O)N1CCCC1Cc1ccccc1F (single isomer, unassigned) [Example I-058] | 90% |
| CCOCc1c(C(=O)N2CCCC2Cc2ccccc2F)cnn1C (single isomer, unassigned) [Example I-142] | 90% |

System: POAAN
Experiment: B. Herbicidal post-emergence action on harmful plants (Tables B)
Type: in vivo, Poa annua
Details: application rate 1280 g/ha; Table B7a
Protocol: Seeds of mono- and dicotyledonous weed plants were placed in plastic pots in sandy loam soil (doubly sown with in each case one species of mono- or dicotyledonous weed plants per pot), covered with soil and cultivated in a greenhouse under controlled growth conditions. 2 to 3 weeks after sowing, the test plants were treated at the one-leaf stage. The compounds of the invention, formulated in the form of wettable powders (WP) or as emulsion concentrates (EC), were applied onto the green parts of the plants as aqueous suspension or emulsion with addition of 0.5% additive at a water application rate of 600 liters per hectare (converted). After the test plants had been kept in the greenhouse under optimum growth conditions for about 3 weeks, the activity of the preparations was rated visually in comparison to untreated controls. For example, 100% activity = the plants have died, 0% activity = like control plants. Tables B1 to B12, below, show the effects of selected compounds of the general formula (I) according to table 1 on various harmful plants and an application rate corresponding to 1280 g/ha or below obtained by the experimental procedure mentioned above. Table B1a: post-emergence activity at 1280g/ha against ABUTH in %

| SMILES | post-emergence activity against POAAN |
| --- | --- |
| COCc1nn(C)c(Cl)c1C(=O)N1CCCC1Cc1ccccc1F (single isomer, unassigned) [Example I-058] | 90% |
| CCOCc1c(C(=O)N2CCCC2Cc2ccccc2F)cnn1C (single isomer, unassigned) [Example I-142] | 90% |

System: SETVI
Experiment: A. Herbicidal pre-emergence action on harmful plants (Tables A)
Type: in vivo, Setaria viridis
Details: application rate 320 g/ha; visual grading after ca. 3 weeks vs untreated controls; 100% = plants have died off, 0% = as control plants
Excerpt: as §1

| SMILES | pre-emergence activity against SETVI |
| --- | --- |
| COCc1nn(C)c(Cl)c1C(=O)N1CCCC1Cc1ccccc1F (single isomer, unassigned) [Example I-058] | 90% |
| CCOCc1c(C(=O)N2CCCC2Cc2ccccc2F)cnn1C (single isomer, unassigned) [Example I-142] | 90% |

Same assay, conditions: application rate 1280 g/ha; visual grading after ca. 3 weeks vs untreated controls; 100% = plants have died off, 0% = as control plants

| SMILES | pre-emergence activity against SETVI |
| --- | --- |
| COCc1nn(C)c(Cl)c1C(=O)N1CCCC1Cc1ccccc1F (single isomer, unassigned) [Example I-058] | 100% |
| COCc1c(C(=O)N2CCCC2Cc2ccccc2C)cnn1C (single isomer, unassigned) [Example I-139] | 100% |
| CCOCc1c(C(=O)N2CCCC2Cc2ccccc2F)cnn1C (single isomer, unassigned) [Example I-142] | 100% |

System: ECHCG
Experiment: as above
Type: in vivo, Echinochloa crus-galli
Details: application rate 80 g/ha; visual grading after ca. 3 weeks vs untreated controls; 100% = plants have died off, 0% = as control plants
Excerpt: as §1

| SMILES | pre-emergence activity against ECHCG |
| --- | --- |
| CCOCc1c(C(=O)N2CCCC2Cc2ccccc2F)cnn1C (single isomer, unassigned) [Example I-142] | 90% |

Same assay, conditions: application rate 320 g/ha; visual grading after ca. 3 weeks vs untreated controls; 100% = plants have died off, 0% = as control plants

| SMILES | pre-emergence activity against ECHCG |
| --- | --- |
| COCc1nn(C)c(Cl)c1C(=O)N1CCCC1Cc1ccccc1F (single isomer, unassigned) [Example I-058] | 90% |
| CCOCc1c(C(=O)N2CCCC2Cc2ccccc2F)cnn1C (single isomer, unassigned) [Example I-142] | 90% |

Same assay, conditions: application rate 1280 g/ha; visual grading after ca. 3 weeks vs untreated controls; 100% = plants have died off, 0% = as control plants

| SMILES | pre-emergence activity against ECHCG |
| --- | --- |
| COCc1nn(C)c(Cl)c1C(=O)N1CCCC1Cc1ccccc1F (single isomer, unassigned) [Example I-058] | 100% |
| COCc1c(C(=O)N2CCCC2Cc2ccccc2C)cnn1C (single isomer, unassigned) [Example I-139] | 100% |
| CCOCc1c(C(=O)N2CCCC2Cc2ccccc2F)cnn1C (single isomer, unassigned) [Example I-142] | 100% |

System: DIGSA
Experiment: as above
Type: in vivo, Digitaria sanguinalis
Details: application rate 320 g/ha; Table A12b
Excerpt: as §1

| SMILES | pre-emergence activity against DIGSA |
| --- | --- |
| COCc1nn(C)c(Cl)c1C(=O)N1CCCC1Cc1ccccc1F (single isomer, unassigned) [Example I-058] | 90% |
| COCc1c(C(=O)N2CCCC2Cc2ccccc2C)cnn1C (single isomer, unassigned) [Example I-139] | 90% |
| CCOCc1c(C(=O)N2CCCC2Cc2ccccc2F)cnn1C (single isomer, unassigned) [Example I-142] | 90% |

Same assay, conditions: application rate 1280 g/ha; Table A12a

| SMILES | pre-emergence activity against DIGSA |
| --- | --- |
| COCc1nn(C)c(Cl)c1C(=O)N1CCCC1Cc1ccccc1F (single isomer, unassigned) [Example I-058] | 100% |
| COCc1c(C(=O)N2CCCC2Cc2ccccc2C)cnn1C (single isomer, unassigned) [Example I-139] | 100% |
| CCOCc1c(C(=O)N2CCCC2Cc2ccccc2F)cnn1C (single isomer, unassigned) [Example I-142] | 100% |

System: ALOMY
Experiment: as above
Type: in vivo, Alopecurus myosuroides
Details: application rate 1280 g/ha; Table A9a
Excerpt: as §1

| SMILES | pre-emergence activity against ALOMY |
| --- | --- |
| CCOCc1c(C(=O)N2CCCC2Cc2ccccc2F)cnn1C (single isomer, unassigned) [Example I-142] | 90% |

System: MATIN
Experiment: as above
Type: in vivo, Matricaria inodora
Details: application rate 1280 g/ha; visual grading after ca. 3 weeks vs untreated controls; 100% = plants have died off, 0% = as control plants
Excerpt: as §1

| SMILES | pre-emergence activity against MATIN |
| --- | --- |
| CCOCc1c(C(=O)N2CCCC2Cc2ccccc2F)cnn1C (single isomer, unassigned) [Example I-142] | 90% |

Same assay, conditions: pre-emergence, 1280 g/ha, 504 h

| SMILES | pre-emergence activity against MATIN |
| --- | --- |
| COCc1nn(C)c(Cl)c1C(=O)N1CCCC1Cc1ccccc1F (single isomer, unassigned) [Example I-058] | 90% |

Reference: EP4417602A1, “SUBSTITUTED PYRAZOLE CARBOXAMIDES, SALTS THEREOF AND THEIR USE AS HERBICIDALLY ACTIVE SUBSTANCES” (Bayer AG, priority 2023, dated 2024)
